Measured values: patent US9938273B2 (Plexxikon Inc., priority 2015, dated 2018)

Target: T1, BA/F3-FLT3-ITD + D835Y cells (Homo sapiens, UniProt P36888, D835Y, cells depend on it, form not given)
T1 sequence (P36888 1-993 D835Y): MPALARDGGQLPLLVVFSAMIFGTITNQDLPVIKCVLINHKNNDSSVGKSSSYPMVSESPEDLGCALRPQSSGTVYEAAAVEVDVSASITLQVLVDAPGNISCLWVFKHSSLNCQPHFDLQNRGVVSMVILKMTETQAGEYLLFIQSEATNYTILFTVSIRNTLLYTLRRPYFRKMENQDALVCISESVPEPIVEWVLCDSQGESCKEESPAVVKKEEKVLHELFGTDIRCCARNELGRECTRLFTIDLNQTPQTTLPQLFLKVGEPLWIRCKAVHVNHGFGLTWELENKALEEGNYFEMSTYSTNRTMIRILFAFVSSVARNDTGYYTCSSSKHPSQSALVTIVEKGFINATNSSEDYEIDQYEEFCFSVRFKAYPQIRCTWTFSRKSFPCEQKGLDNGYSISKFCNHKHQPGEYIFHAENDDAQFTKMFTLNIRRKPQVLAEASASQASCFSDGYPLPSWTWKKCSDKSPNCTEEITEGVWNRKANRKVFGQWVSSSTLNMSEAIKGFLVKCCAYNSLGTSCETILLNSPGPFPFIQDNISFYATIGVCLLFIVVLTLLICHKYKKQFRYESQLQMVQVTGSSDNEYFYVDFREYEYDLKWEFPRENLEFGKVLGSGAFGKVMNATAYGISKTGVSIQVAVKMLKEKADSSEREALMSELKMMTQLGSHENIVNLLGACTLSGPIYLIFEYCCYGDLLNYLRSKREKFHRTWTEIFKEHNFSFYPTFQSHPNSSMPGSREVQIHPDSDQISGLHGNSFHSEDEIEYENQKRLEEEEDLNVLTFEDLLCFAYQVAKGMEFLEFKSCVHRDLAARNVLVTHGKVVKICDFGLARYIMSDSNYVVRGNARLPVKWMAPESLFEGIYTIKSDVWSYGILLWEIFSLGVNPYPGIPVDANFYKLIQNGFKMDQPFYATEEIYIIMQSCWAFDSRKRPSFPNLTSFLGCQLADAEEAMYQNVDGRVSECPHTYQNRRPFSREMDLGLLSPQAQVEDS
Assay: Cell proliferation assay (CellTiter-Glo), engineered BA/F3 cells
Type: cell-based, murine
Conditions: BaF3 FLT3 ITD/D835Y cells, 3d-Growth; read-out: BaF3_FLT3 ITD/D835Y 3d-Growth: IC50
Procedure, shortened: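 MOLM-14 AML cells (endogenous FLT3 ITD, AC220-selected D835Y or F691L variants) or murine Ba/F3 expressing full-length FLT3 ITD/D835Y, without IL-3 for FLT3 dependence, 1×10^4 cells/well. Eight-point 1:3 series from 1 μM final, 0.2% DMSO, 3 days at 37 °C. CellTiter-Glo luminescence (ATP) gave IC50.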

Question: With `CN[C@@H]1CCN(C(=O)c2cccc(-c3cnc4[nH]c(-c5ccccc5)cc4c3)n2)C1` [Compound P-0058, [(3R)-3-(methylamino)pyrrolidin-1-yl]-[6-(2-phenyl-1H-pyrrolo[2,3-b]pyridin-5-yl)-2-pyridyl]methanone] as the compound, how does the GI50 read?
Answer: Its GI50 is 0.0001 to 10 µM.

Question: For `CNC1CCN(C(=O)c2cccc(-c3cnc4[nH]c(-c5ccnc(OC)c5)cc4c3)n2)C1` (stereo not drawn) [Compound P-0060, [6-[2-(2-methoxy-4-pyridyl)-1H-pyrrolo[2,3-b]pyridin-5-yl]-2-pyridyl]-[3-(methylamino)pyrrolidin-1-yl]methanone], which GI50 is on record?
Answer: Its GI50 is 0.0001 to 10 µM.

Question: How did the GI50 turn out when `CNC1CCN(C(=O)c2cccc(-c3cnc4[nH]c(-c5cnn(CC(F)(F)F)c5)cc4c3)n2)C1` (stereo not drawn) [Compound P-0061, [3-(methylamino)pyrrolidin-1-yl]-[6-[2-[1-(2,2,2-trifluoroethyl)pyrazol-4-yl]-1H-pyrrolo[2,3-b]pyridin-5-yl]-2-pyridyl]methanone] was run?
Answer: The GI50 was 0.0001 to 10 µM.

Question: `CNC1CCN(C(=O)c2cccc(-c3cnc4[nH]c(-c5cccc(C#N)c5)cc4c3)n2)C1` (stereo not drawn) [Compound P-0062, 3-[5-[6-[3-(methylamino)pyrrolidine-1-carbonyl]-2-pyridyl]-1H-pyrrolo[2,3-b]pyridin-2-yl]benzonitrile] was tested. Which GI50 did it give?
Answer: The GI50 was 0.0001 to 10 µM.

Question: `CNC1CCN(S(=O)(=O)c2cccc(-c3cnc4[nH]c(-c5ccccc5)cc4c3)n2)C1` (stereo not drawn) [Compound P-0063, N-methyl-1-[[6-(2-phenyl-1H-pyrrolo[2,3-b]pyridin-5-yl)-2-pyridyl]sulfonyl]pyrrolidin-3-amine] was tested. Which GI50 did it give?
Answer: The GI50 was 0.0001 to 10 µM.

Question: `CN1CCC(NC(=O)c2cccc(-c3cnc4[nH]c(-c5ccccc5)cc4c3)n2)C1` (stereo not drawn) [Compound P-0064, N-(1-methylpyrrolidin-3-yl)-6-(2-phenyl-1H-pyrrolo[2,3-b]pyridin-5-yl)pyridine-2-carboxamide] was tested. Which GI50 did it give?
Answer: The GI50 was 0.0001 to 10 µM.

Question: For `CNC1CCN(C(=O)c2cccc(-c3cnc4[nH]c(C5=CCC(C)(C)CC5)cc4c3)n2)C1` (stereo not drawn) [Compound P-0070, [6-[2-(4,4-dimethylcyclohexen-1-yl)-1H-pyrrolo[2,3-b]pyridin-5-yl]-2-pyridyl]-[3-(methylamino)pyrrolidin-1-yl]methanone], which GI50 is on record?
Answer: Its GI50 is 0.0001 to 10 µM.

Question: `O=S(=O)(NC1CNC1)c1cccc(-c2cnc3[nH]c(-c4ccccc4)cc3c2)n1` [Compound P-0071, N-(azetidin-3-yl)-6-(2-phenyl-1H-pyrrolo[2,3-b]pyridin-5-yl)pyridine-2-sulfonamide] was tested. Which GI50 did it give?
Answer: The GI50 was 0.0001 to 10 µM.

Question: How did the GI50 turn out when `O=S(=O)(NC1CCNC1)c1cccc(-c2cnc3[nH]c(-c4ccccc4)cc3c2)n1` (stereo not drawn) [Compound P-0072, 6-(2-phenyl-1H-pyrrolo[2,3-b]pyridin-5-yl)-N-pyrrolidin-3-yl-pyridine-2-sulfonamide] was run?
Answer: Its GI50 is 0.0001 to 10 µM.

Question: `NC1CCN(S(=O)(=O)c2cccc(-c3cnc4[nH]c(-c5ccccc5)cc4c3)n2)CC1` [Compound P-0073, 1-[[6-(2-phenyl-1H-pyrrolo[2,3-b]pyridin-5-yl)-2-pyridyl]sulfonyl]piperidin-4-amine] was tested. Which GI50 did it give?
Answer: The GI50 was 0.0001 to 10 µM.

Question: How did the GI50 turn out when `CN1CC(NC(=O)c2cccc(-c3cnc4[nH]c(-c5ccccc5)cc4c3)n2)C1` [Compound P-0075, N-(1-methylazetidin-3-yl)-6-(2-phenyl-1H-pyrrolo[2,3-b]pyridin-5-yl)pyridine-2-carboxamide] was run?
Answer: Its GI50 is 0.0001 to 10 µM.

Question: `NC1(C(F)(F)F)CCN(C(=O)c2cccc(-c3cnc4[nH]c(-c5ccccc5)cc4c3)n2)C1` (stereo not drawn) [Compound P-0077, [3-amino-3-(trifluoromethyl)pyrrolidin-1-yl]-[6-(2-phenyl-1H-pyrrolo[2,3-b]pyridin-5-yl)-2-pyridyl]methanone] was tested. Which GI50 did it give?
Answer: Its GI50 is 0.0001 to 10 µM.

Question: With `CC1(N)CCN(C(=O)c2cccc(-c3cnc4[nH]c(-c5ccccc5)cc4c3)n2)C1` (stereo not drawn) [Compound P-0078, (3-amino-3-methyl-pyrrolidin-1-yl)-[6-(2-phenyl-1H-pyrrolo[2,3-b]pyridin-5-yl)-2-pyridyl]methanone] as the compound, how does the GI50 read?
Answer: The GI50 was 0.0001 to 10 µM.

Question: `CNCC1CCN(C(=O)c2cccc(-c3cnc4[nH]c(-c5ccccc5)cc4c3)n2)C1` (stereo not drawn) [Compound P-0079, [3-(methylaminomethyl)pyrrolidin-1-yl]-[6-(2-phenyl-1H-pyrrolo[2,3-b]pyridin-5-yl)-2-pyridyl]methanone] was tested. Which GI50 did it give?
Answer: The GI50 was 0.0001 to 10 µM.

Question: Which GI50 does the source give for `O=C(Nc1cccc(-c2cnc3[nH]c(-c4ccccc4)cc3c2)n1)C1CNC1` [Compound P-0084, N-[6-(2-phenyl-1H-pyrrolo[2,3-b]pyridin-5-yl)-2-pyridyl]azetidine-3-carboxamide] here?
Answer: Its GI50 is 0.0001 to 10 µM.

Question: Which GI50 does the source give for `O=C(c1cccc(-c2cnc3[nH]c(-c4ccccc4)cc3c2)n1)N1CCC(NC2CC2)C1` (stereo not drawn) [Compound P-0085, [3-(cyclopropylamino)pyrrolidin-1-yl]-[6-(2-phenyl-1H-pyrrolo[2,3-b]pyridin-5-yl)-2-pyridyl]methanone] here?
Answer: The GI50 was 0.0001 to 10 µM.

Question: For `O=S(=O)(NC1CCNCC1)c1cccc(-c2cnc3[nH]c(-c4ccccc4)cc3c2)n1` [Compound P-0086, 6-(2-phenyl-1H-pyrrolo[2,3-b]pyridin-5-yl)-N-(4-piperidyl)pyridine-2-sulfonamide], which GI50 is on record?
Answer: Its GI50 is 0.0001 to 10 µM.

Question: How did the GI50 turn out when `NC1CCC(NS(=O)(=O)c2cccc(-c3cnc4[nH]c(-c5ccccc5)cc4c3)n2)CC1` (stereo not drawn) [Compound P-0088, N-(4-aminocyclohexyl)-6-(2-phenyl-1H-pyrrolo[2,3-b]pyridin-5-yl)pyridine-2-sulfonamide] was run?
Answer: The GI50 was 0.0001 to 10 µM.

Question: For `O=C(c1cccc(-c2cnc3[nH]c(-c4ccccc4)cc3c2)n1)N1CC(F)(F)C1` [Compound P-0090, (3,3-difluoroazetidin-1-yl)-[6-(2-phenyl-1H-pyrrolo[2,3-b]pyridin-5-yl)-2-pyridyl]methanone], which GI50 is on record?
Answer: The GI50 was 0.0001 to 10 µM.

Question: How did the GI50 turn out when `COC1CN(C(=O)c2cccc(-c3cnc4[nH]c(-c5ccccc5)cc4c3)n2)C1` [Compound P-0091, (3-methoxyazetidin-1-yl)-[6-(2-phenyl-1H-pyrrolo[2,3-b]pyridin-5-yl)-2-pyridyl]methanone] was run?
Answer: The GI50 was 0.0001 to 10 µM.

Question: Which GI50 does the source give for `CC1(C#N)CCN(C(=O)c2cccc(-c3cnc4[nH]c(-c5ccccc5)cc4c3)n2)CC1` [Compound P-0094, 4-methyl-1-[6-(2-phenyl-1H-pyrrolo[2,3-b]pyridin-5-yl)pyridine-2-carbonyl]piperidine-4-carbonitrile] here?
Answer: Its GI50 is 0.0001 to 10 µM.

Question: `COC1CCN(C(=O)c2cccc(-c3cnc4[nH]c(-c5ccccc5)cc4c3)n2)CC1` [Compound P-0098, (4-methoxy-1-piperidyl)-[6-(2-phenyl-1H-pyrrolo[2,3-b]pyridin-5-yl)-2-pyridyl]methanone] was tested. Which GI50 did it give?
Answer: Its GI50 is 0.0001 to 10 µM.

Question: For `CS(=O)(=O)NC1CCN(C(=O)c2cccc(-c3cnc4[nH]c(-c5ccccc5)cc4c3)n2)C1` (stereo not drawn) [Compound P-0101, N-[1-[6-(2-phenyl-1H-pyrrolo[2,3-b]pyridin-5-yl)pyridine-2-carbonyl]pyrrolidin-3-yl]methanesulfonamide], which GI50 is on record?
Answer: The GI50 was 0.0001 to 10 µM.

Question: For `O=C(c1cccc(-c2cnc3[nH]c(-c4ccccc4)cc3c2)n1)N1CCC(N2CCOCC2)C1` (stereo not drawn) [Compound P-0102, (3-morpholinopyrrolidin-1-yl)-[6-(2-phenyl-1H-pyrrolo[2,3-b]pyridin-5-yl)-2-pyridyl]methanone], which GI50 is on record?
Answer: The GI50 was 0.0001 to 10 µM.

Question: How did the GI50 turn out when `O=C(c1cccc(-c2cnc3[nH]c(-c4ccccc4)cc3c2)n1)N1CCC(C(F)(F)F)C1` (stereo not drawn) [Compound P-0103, [6-(2-phenyl-1H-pyrrolo[2,3-b]pyridin-5-yl)-2-pyridyl]-[3-(trifluoromethyl)pyrrolidin-1-yl]methanone] was run?
Answer: The GI50 was 0.0001 to 10 µM.

Question: `CN(C)C1CCN(C(=O)c2cccc(-c3cnc4[nH]c(-c5ccccc5)cc4c3)n2)C1` (stereo not drawn) [Compound P-0104, [3-(dimethylamino)pyrrolidin-1-yl]-[6-(2-phenyl-1H-pyrrolo[2,3-b]pyridin-5-yl)-2-pyridyl]methanone] was tested. Which GI50 did it give?
Answer: Its GI50 is 0.0001 to 10 µM.

Question: For `N#CC1CCN(C(=O)c2cccc(-c3cnc4[nH]c(-c5ccc(F)cc5)cc4c3)n2)C1` (stereo not drawn) [Compound P-0116, 1-[6-[2-(4-fluorophenyl)-1H-pyrrolo[2,3-b]pyridin-5-yl]pyridine-2-carbonyl]pyrrolidine-3-carbonitrile], which GI50 is on record?
Answer: Its GI50 is 0.0001 to 10 µM.
